Test results reported in patent US20170216360A1, “METHODS AND COMPOSITIONS FOR IMPROVING HOMING OF CELLS INCLUDING MESENCHYMAL STEM CELLS” (SANOFI, priority 2014, published 2017).
Counter-ions that a name gives are not always drawn.

Experiments:
[1] = system: CD11a surface expression on huMSCs; test: Medium throughput screen: CD11a surface expression on MSCs, PE-CY5 anti-CD11a antibody, laser-scanning fluorescence microplate cytometer; assay type: cell-based, human
[2] = system: LPS-induced inflamed mouse ear; test: Ear thickness in LPS-induced ear inflammation after infusion of pretreated MSCs; assay type: in vivo
Experimental: (§1) To determine the impact of small molecule pretreatment on MSC therapeutic potential, ear swelling was measured. As a baseline, we measured ear thickness of all mice to be used using a caliper (Mitutoyo Inc.) and found no difference. Each measurement was taken 3 times with the average value recorded, and care taken to ensure minimal compression. Inflammation was then induced by injection of 30 μg LPS in 30 μL 0.9% saline solution into the pinna of the left ear. 24 hours later, n=3 mice of each condition were infused with no MSCs, 10e6/20 g body weight MSCs pretreated for 24 hours with 0.1% DMSO, or 10e6/20 g body weight MSCs pretreated for 24 hours with 3.0 μM small molecule compound 1929. Upon 24 hours after cell infusion, ear thickness was measured using a caliper as before. To evaluate TNF-α secretion, inflammation and MSC treatment was performed as above with n=4-6 mice for each condition. Mice were sacrificed 24 hours after cell administration and both ears were harvested. Ears were then ground in ice-cold extraction buffer (RIPA with 0.5% Tween-20) using a homogenizer. Homogenates were transferred to 1.5 mL tubes, centrifuged at 13,000×g for 10 minutes at 4° C., and the supernatant was stored at −80° C. until analysis. The level of mouse TNF-α level in the samples was quantified using an anti-mouse TNF-α ELISA kit (Biolegend, San Diego, Calif.).

TNF-α = TNF-α ELISA of ear homogenates after infusion of pretreated MSCs; assay type: in vivo, mouse
Experimental: as §1

[3] = system: MSC firm adhesion to ICAM-1-coated surface; test: ICAM-1 firm adhesion assay under shear flow, with antibody blocking; assay type: cell-based, human
Experimental: Cell adhesion experiments were performed using Bioflux1000 (FluxionBio), allowing accurate control over shear flow. A special 48-well plate was used, in which a microfluidic channel (350 μm×70 μm) connects each pair of adjacent wells (termed inlet and outlet wells). The plate was placed under vacuum and the channels were coated from the inlet with recombinant human E-selectin (5 μg/mL) or ICAM-1 (5 μg/mL) and incubated at 37° C. for 1 h. Prior to introducing the cells into the channel, a wash with PBS−/− from the outlet well was performed for 5 min. Compound-pretreated MSCs were introduced into the channel, followed by attachment period of 2 minutes (no flow applied during the attachment period). Attached cells were then subjected to increasing shear flow, ranging from 0.25 dynes/cm^2 for up to 10 dynes/cm^2. Images were acquired using the Montage software and cell adhesion to the coated channels following subjection to shear flow was examined. See also disclosure elsewhere herein.
Pre-confluent MSCs were incubated for 24 hours with the indicated small molecules (3 μM). MSCs were than detached, washed and incubated for 30 minutes with an antibody reagent. The following antibodies are used: anti-human CD11a (clone: HI111), anti-human CD90 (clone: MAB2067), mouse anti-human CD11a (clone: TS1/22), and mouse IgG1 isotype control. Cells were then introduced into the channel and given 2 minutes to adhere before being subjected to increasing shear flow for a firm adhesion assay on a microfluidic channel coated with E-selectin or ICAM-1.

MSCs = test: Cell viability assay, XTT; assay type: cell-based, human
Experimental: Pre-confluent MSCs were incubated with Ro-31-8425 at the indicated concentrations for 24 h or 72 h and cell viability was assessed via an XTT assay according to manufacturer's instructions (ATCC).
MSCs were pretreated with Ro-31-8425 for 24 h or 72 h, followed by quantification of MSC viability via XTT. (Y axis presents the percentage of viable cells compared to untreated control (cells incubated with 10% FBS-supplemented MEMa media), error bars represent standard deviation, n=3).

CD18 mRNA = CD18 mRNA analysis by qPCR in MSCs; assay type: cell-based, human; settings: 3 μM
Experimental: (§2) The mRNA levels of CD11a and CD18 in response to Ro-31-8425 pretreatment of MSCs were analyzed by qPCR. Specifically, MSCs were treated with Ro-31-8425 (3 μM) or vehicle control (0.1% DMSO) for 2 h, 4 h, 8 h, 14 h or 24 h. Cells were then trypsinized, washed with ice-cold PBS and pelleted (500 g for 5 min at 4° C.) at during the treatment and immediately stored at −80° C. RNA extraction was then performed. Briefly, the frozen cell pellet was crushed with a tissue pestle (Fisher Scientific) in the presence of 1 mL TRI RNA isolation reagent (Sigma Aldrich). Upon complete pellet dissociation, 0.2 mL chloroform was added and suspension was vortexed for 15 s, followed by incubation at ambient temperature for 10 min. The mixture was centrifuged at 15,000 g for 15 min at […], the resulting supernatant aqueous phase was removed, thoroughly mixed with 0.5 mL isopropanol (Sigma Aldrich) and further centrifuged (at 15,000 g for 10 min) to obtain the total RNA precipitates. The RNA pellets were washed twice in 75% ethanol, and air dried for 10 min at room temperature before being reconstituted with 20 uL ultrapure H2O. The quality and quantity of the total RNAs were measured and verified using Nanodrop ND-2000 Spectrophotometer (NanoDrop Products). Subsequently, equal amount of total RNA (2 μg) was reverse transcribed into cDNA using a QuantiTect reverse transcription kit (Qiagen). […]

CD11a mRNA = CD11a mRNA analysis by qPCR in MSCs; assay type: cell-based, human; settings: 3 μM
Experimental: as §2

`Cn1cc(C2=C(c3c4n(c5ccccc35)CCC(CN)C4)C(=O)NC2=O)c2ccccc21` (centres unmarked) [Compound 1929, 3-(8-aminomethyl-6,7,8,9-tetrahydro-pyrido[1,2-a]indol-10-yl)-4-(1-methyl-1H-indol-3-yl)-pyrrole-2,5-dione hydrochloride] was tested, and the “Effect on the expression of other homing ligands” value [1] was “no observed effect”, the “Effect on ear swelling relative to control MSCs” value ([2]; 24 hours post administration) was “over 3 ×” and the “Reduction in ear thickness” value ([2]; 24 hours post administration of pretreated MSCs, vs no MSC) was 20.0±5.3 μm. The “Effect in reducing ear swelling relative to vehicle control MSCs” value ([2]; 24 h post-administration) was “greater than 3 fold”, the “Reduction of increased TNF-α levels in the inflamed ear” value (TNF-α; 24 h after pretreated MSCs) was about 50% and the “TNF-alpha levels in the inflamed ear, fold reduction” value (TNF-α; 24 hours after pretreated MSCs) was 2.6±0.5 fold. For the same molecule, the “CD11a+ part of the induced ICAM-1 adhering population” value ([3]; 3 μM for 24 h) was “approximately 7%”, the “Increase in MSC firm adhesion to ICAM-1-coated substrate compared to vehicle-treated MSCs” value ([3]; 3 μM for 24 h) was over 3 fold and the “New MSC sub-population with induced ICAM-1 firm adhesion, share of entire population” value ([3]; 3 μM for 24 h) was 68%. For the same molecule, the “Part expressing other ICAM-1-binding domains” value ([3]; 3 μM for 24 h) was 61%, the “Adhered cells on ICAM-1-coated surface before CD11a blocking” value ([3]; pretreated MSC) was 90% and the “Adhered cells on ICAM-1-coated surface following CD11a blocking” value ([3]; pretreated MSC, CD11a blocking Ab) was 50%. For the same molecule, the MSC viability (MSCs; 0.25 to 4 μM, 24 h pretreatment) was “did not significantly compromise cell viability”, the “Concentration levels at which toxicity to MSCs was seen” value (MSCs; 72 h pretreatment) was “greater than 4 μM” and the “mRNA levels of CD18 in MSCs” value (CD18 mRNA) was “did not upregulate”. For the same molecule, the “CD11a mRNA levels in MSCs” value (CD11a mRNA) was “significantly increased” and the “Time of peak CD11a mRNA levels post incubation” value (CD11a mRNA) was 14 h.
